This note sets out measurements from paper PMC8467576, “Novel Ubiquitin Specific Protease-13 Inhibitors Alleviate Neurodegenerative Pathology” (Metabolites, 2021).

Each structure is given as a SMILES string. Values joined by “and” are separate entries in the source; they are usually repeats but may differ in a detail not shown here. Identical values can stand only once. Like-named read-outs stand apart in the source and are kept apart here.

Usually Cmax stands for the peak of the concentration-time curve. Usually Tmax stands for the time from dosing to the highest level. What is called AUC is the area under the concentration-time curve, a measure of exposure. Read a high AUC as high exposure.

A short description of series [1]: Pharmacokinetics in wild type C57BL6 mice (brain and serum, UHPLC-MS/MS). The conditions noted are these: C57BL/6, mouse, ip, 10 mg/kg I.P.; for AUC: over 12 h; for half-life: read-out: T1/2 (elimination) (converted). The series is classed as in vivo. The method, then:
Wild type C57BL6 mice were injected with 10 mg/kg BK50118-C versus DMSO, and the brain and serum were isolated at 0, 1, 2, 4, 6, 8 and 12 h; extracted in water and examined by mass spectrometry. […] Elimination (T1/2) was 2.32 h for brain and 1.84 h in serum.
C57BL/6 mice received a single intraperitoneal dose (10 mg/kg) of BK50118-C. Brain and serum samples were collected at 1, 2, 3, 4, 8 and 12 h (n = 3 per time point). Animals injected with vehicle (DMSO) were used for background subtraction. Stock solution of the drug (1 mg/mL) and internal standards were prepared in methanol. Intermediate solutions used for the calibrators and control samples were serial-diluted in methanol/water (1:1). Preparation of the calibration curve standards and quality samples (QC) were performed by mixing the intermediate dilutions in blank samples (brain homogenates, serum). The internal standard working solution contained deuterium labeled BK50118-C-d7 at the concentration of 5 ng/mL diluted in acetonitrile (ACN)/ethyl acetate (4:1). Serum and brain samples were stored at −80 °C and then thawed to room temperature prior to preparation. The brains were homogenized in MilliQ water (1 mg brain: 10 µL water). Proteins were precipitated in both brain and serum samples by mixing 25 µL aqueous sample with 75 µL internal standard working solution. The mixture was centrifuged at 12,300× g for 5 min. Thereafter, 75 µL of each supernatant and 25 µL of MilliQ water were pipetted into a 96-well PCR plate (Fisher Scientific, Dawsonville, GA, USA).
The concentrations of BK50118-C in the brain tissue and serum samples were measured by ultrahigh performance liquid chromatography tandem mass spectrometry (UHPLC-MS/MS). Briefly, the UHPLC-MS/MS system included an Elute HTG binary gradient UHPLC pump, an Elute column oven and an EVOQ Elite triple quadrupole mass spectrometer (all from Bruker Daltonik GmbH, Bremen, Germany) equipped with an electrospray ionization (ESI) source operating in a positive mode. The samples were injected by use of a PAL auto sampler (CTC Analytics, Zwingen, Switzerland) equipped with a 10-µL sample loop; the samples were kept in a PAL stack cooler for 6 microtiter plates and operating at +6 °C. The system was controlled by a Compass 2.0/HyStar 4.0 software (Bruker); the compound screening and quantitation was performed by a TASQ 2.2 data acquisition and processing software (Bruker). The mass spectrometer was supplied by nitrogen and air generated by a Genius 3045 nitrogen/air generator (Peak Scientific Instruments, Inchinnan, Scotland, UK). The ESI parameters were as follows: probe gas flow 50, nebulizer gas flow 60, probe temperature +400 °C, cone gas flow 20, cone temperature +350 °C, CID gas Ar 1.5 mTorr. The mass spectra were scanned in the MRM mode to find the optimal collision energies for the test compounds and their respective precursor ions.
For chromatographic separation, an YMC-Ultra HT Hydrosphere C18 column (2.0 × 100 mm, 2 µm particle size) and an YMC-Hydrosphere 2.1 × 5 mm guard column (YMC Co. Ltd., Kyoto, Japan) were used. The mobile phase A was 10 mM ammonium formate, pH 4.3, in water; the mobile phase B was 10 mM ammonium formate, pH 4.3, in 10% water, 50% acetonitrile and 40% isopropyl alcohol. The mobile phase gradient was as follows (min—A/B%): 0 min—50/50, 0.5 min—50/50, 2.0 min—20/80, 3 min—20/80, 3.1 min—50/50, 4.5 min—50/50. The flow rate was 450 µL/min, and the column temperature was set at 50 °C. The sample injection volume was 10 µL.

Another series concerns human alpha-synuclein. The series can be described thus: Human alpha-synuclein ELISA in transfected SH-SY5Y cells. The note with it: 5 h, at 1 mM and 100 µM. The series is classed as cell-based. The method, then:
Stably transfected human neuroblastoma SH-SY5Y cells with human wild-type alpha-synuclein were treated with 1 mM, 100 µM, 10 µM, 1 µM, 0.1 µM, 0.01 µM and 0.001 µM of each of BK50118-A, BK50118-B, BK50118-C, CL3-499, CL3-512 and CL3-514 dissolved in an equivalent volume of DMSO for 5 h. […] The other 5 compounds were also able to lower alpha-synuclein levels but with less potency (Figure 3H,I,K–M).
SH-SY5Y cells were transiently transfected for 24 h with human wild-type α-synuclein using Fugene HD transfection reagent (Promega, E2311, Madison, WI, USA) according to manufacturer’s protocol. Cells were treated with 1 mM, 0.1 mM, 0.01 mM, 1 µM, 0.1 µM, 0.01 µM and 0.001 µM of each novel compounds (BK50118-A, BK50118-B, BK50118-C, CL3-499, CL3-512 and CL3-514) dissolved in DMSO for 5 h. […] Cell viability was determined via lactate dehydrogenase assay on culture media (Thermofisher, 88954) and MTT assay on plated cells (Thermofisher, V13154). […]

For series [2], the system named is SH-SY5Y human neuroblastoma cells. Briefly: LDH and MTT cell viability assays. Format: cell-based. The conditions noted are these: 5 h, compared to DMSO or untreated controls. As to the method: BK50118-B and BK50118-C (Figure 2C,D) decreased cell viability near and above 100 μM compared to DMSO or untreated controls. CL3-499 (Figure 2G) decreased cell viability near and above 1 mM compared to DMSO or untreated controls.
SH-SY5Y cells were transiently transfected for 24 h with human wild-type α-synuclein using Fugene HD transfection reagent (Promega, E2311, Madison, WI, USA) according to manufacturer’s protocol. Cells were treated with 1 mM, 0.1 mM, 0.01 mM, 1 µM, 0.1 µM, 0.01 µM and 0.001 µM of each novel compounds (BK50118-A, BK50118-B, BK50118-C, CL3-499, CL3-512 and CL3-514) dissolved in DMSO for 5 h. Cells were then harvested on ice by removing culture medium and adding 0.2 mL 1x sodium-tris, EDTA, NP-40 (STEN) buffer (50 mM Tris (pH 7.6), 150 mM NaCl, 2 mM EDTA, 0.2 % NP-40, 0.2 % with Halt protease and phosphatase inhibitor solution (ThermoFisher, 78446). Cells were detached with a cell scraper and collected into centrifuge tubes and incubated at 4 °C for 30 min with agitation. Samples were stored at −80 °C and used for ELISA analyses. For cell viability assay, SHSY-5Y cells stably expressing human wild-type alpha-synuclein were treated with 1 mM, 0.1 mM, 0.01 mM, 1 µM, 0.1 µM, 0.01 µM and 0.001 µM of each novel compound (BK50118-A, BK50118-B, BK50118-C, CL3-499, CL3-512 and CL3-514) dissolved in DMSO for 5 h. Cell viability was determined via lactate dehydrogenase assay on culture media (Thermofisher, 88954) and MTT assay on plated cells (Thermofisher, V13154).

On to `Fc1ccc2nccc(OCc3ccccc3)c2c1` [BK50118-C, 4-benzyloxy-6-fluoroquinoline], for which, in series [1] (brain and serum, read-out: Ratio of Serum/Brain), the Kp came out at 0.28. For the same molecule, in series [1] (brain), the highest concentration (Cmax) is 81.5 nM and 20.6 ng/mL; the Tmax stood at 1 h; the area under the curve (AUC) came out at 0.164 ± 0.0395 µM·h; the half-life was 2.32 h. In series [1] (serum), the maximum concentration (Cmax) is 89.7 ng/mL and 355 nM; the time of peak concentration (Tmax) came out at 1 h; the AUC amounted to 0.599 ± 0.143 µM·h; the half-life was 1.84 h. Further, the “alpha-synuclein levels (ELISA)” value in the series with human alpha-synuclein was “almost complete alpha-synuclein clearance”. Moreover, the “concentration near and above which cell viability decreased” value in series [2] was not below 100 µM.
